Reference: ChEMBL document CHEMBL4177603 (Bioorg Med Chem Lett, 2017)

Experiments:
[1] = molecular target: Sodium channel protein type 11 subunit alpha (Homo sapiens, UniProt Q9UI33); assay: Inhibition of human Nav1.9 expressed in HEK cells by automated patchXpress electrophysiology method; type: cell-based
[2] = molecular target: Beta-2 adrenergic receptor (Homo sapiens) (UniProt P07550); assay: Agonist activity at recombinant human beta2 receptor expressed in CHOK1 cells assessed as increase in cAMP accumulation at 10 uM after 30 mins by HTRF assay relative to control; type: functional, cell-based
[3] = molecular target: Prostaglandin G/H synthase 2 (Homo sapiens) (UniProt P35354); assay: Inhibition of recombinant human COX2 at 10 uM using arachidonic acid as substrate measured after 5 mins by fluorescence assay
[4] = molecular target: Cytochrome P450 1A2 (Homo sapiens, UniProt P05177); assay: Inhibition of CYP1A2 (unknown origin); type: ADME
[5] = molecular target: Proto-oncogene tyrosine-protein kinase Src (Homo sapiens) (UniProt P12931); assay: Inhibition of recombinant human SRC at 10 uM using Ulight-Poly GAT[EAY(1:1:1)]n as substrate after 10 mins by LANCE assay
[6] = molecular target: High affinity choline transporter 1 (Homo sapiens) (UniProt Q9GZV3); assay: Displacement of [3H]hemicholinium-3 from recombinant human choline transporter at 10 uM after 60 mins by scintillation counting method
[7] = molecular target: Voltage-gated inwardly rectifying potassium channel KCNH2 (Homo sapiens, UniProt Q12809); assay: Inhibition of human ERG by PatchXpress electrophysiology method
[8] = Protein binding in rat plasma assessed as fraction unbound at 2 uM; type: ADME, cell-free
[9] = molecular target: Sodium-dependent dopamine transporter (Homo sapiens, UniProt Q01959); assay: Displacement of [3H]BTCP from recombinant human dopamine transporter after 120 mins by scintillation counting method
[10] = molecular target: T1, Alpha-1A adrenergic receptor (Homo sapiens) (UniProt P35348); assay: Antagonist activity at recombinant human alpha1a receptor expressed in CHOK1 cells assessed as inhibition of epinephrine-induced calcium flux at 10 uM by fluorescence assay relative to control; type: functional, cell-based
T1 sequence (whole entry): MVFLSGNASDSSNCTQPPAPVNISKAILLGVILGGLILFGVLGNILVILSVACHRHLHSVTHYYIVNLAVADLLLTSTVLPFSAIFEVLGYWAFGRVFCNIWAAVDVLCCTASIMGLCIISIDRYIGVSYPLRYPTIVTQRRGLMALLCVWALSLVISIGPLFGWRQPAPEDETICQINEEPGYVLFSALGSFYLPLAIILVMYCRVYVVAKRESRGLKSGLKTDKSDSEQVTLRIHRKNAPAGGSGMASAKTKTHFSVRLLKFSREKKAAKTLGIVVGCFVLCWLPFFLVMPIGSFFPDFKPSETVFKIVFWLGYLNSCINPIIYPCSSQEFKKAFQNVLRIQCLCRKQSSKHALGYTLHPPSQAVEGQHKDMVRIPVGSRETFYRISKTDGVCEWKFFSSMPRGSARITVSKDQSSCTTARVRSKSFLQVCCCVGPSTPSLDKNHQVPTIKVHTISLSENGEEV

[11] = molecular target: D(1A) dopamine receptor (Homo sapiens) (UniProt P21728); assay: Antagonist activity at recombinant human D1 receptor expressed in CHOK1 cells assessed as inhibition of dopamine-induced cAMP accumulation at 10 uM after 30 mins by HTRF assay relative to control; type: functional, cell-based
[12] = Half-life in rat at 0.3 mg/kg, iv via infusion for 1 hr; type: ADME, organism-based; settings: in vivo
[13] = molecular target: Cannabinoid receptor 1 (Homo sapiens) (UniProt P21554); assay: Agonist activity at recombinant human CB1 receptor expressed in CHOK1 cells assessed as increase in cAMP accumulation at 10 uM after 20 mins by HTRF assay relative to control; type: functional, cell-based
Sequence of Cannabinoid receptor 1 (Homo sapiens) (P21554 whole entry): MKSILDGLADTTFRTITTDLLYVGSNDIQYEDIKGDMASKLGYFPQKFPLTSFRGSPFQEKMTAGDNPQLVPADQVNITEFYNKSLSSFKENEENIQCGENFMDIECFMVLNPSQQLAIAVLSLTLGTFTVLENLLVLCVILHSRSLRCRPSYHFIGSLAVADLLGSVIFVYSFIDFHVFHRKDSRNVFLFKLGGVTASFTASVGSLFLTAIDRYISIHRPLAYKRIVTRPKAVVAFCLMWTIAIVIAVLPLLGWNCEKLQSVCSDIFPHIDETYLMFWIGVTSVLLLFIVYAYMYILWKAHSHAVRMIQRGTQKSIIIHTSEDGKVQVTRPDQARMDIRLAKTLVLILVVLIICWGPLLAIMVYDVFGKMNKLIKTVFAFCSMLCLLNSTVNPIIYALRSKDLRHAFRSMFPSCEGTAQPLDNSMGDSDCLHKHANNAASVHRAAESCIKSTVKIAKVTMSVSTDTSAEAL

Sequence of Sodium-dependent dopamine transporter (Q01959 whole entry): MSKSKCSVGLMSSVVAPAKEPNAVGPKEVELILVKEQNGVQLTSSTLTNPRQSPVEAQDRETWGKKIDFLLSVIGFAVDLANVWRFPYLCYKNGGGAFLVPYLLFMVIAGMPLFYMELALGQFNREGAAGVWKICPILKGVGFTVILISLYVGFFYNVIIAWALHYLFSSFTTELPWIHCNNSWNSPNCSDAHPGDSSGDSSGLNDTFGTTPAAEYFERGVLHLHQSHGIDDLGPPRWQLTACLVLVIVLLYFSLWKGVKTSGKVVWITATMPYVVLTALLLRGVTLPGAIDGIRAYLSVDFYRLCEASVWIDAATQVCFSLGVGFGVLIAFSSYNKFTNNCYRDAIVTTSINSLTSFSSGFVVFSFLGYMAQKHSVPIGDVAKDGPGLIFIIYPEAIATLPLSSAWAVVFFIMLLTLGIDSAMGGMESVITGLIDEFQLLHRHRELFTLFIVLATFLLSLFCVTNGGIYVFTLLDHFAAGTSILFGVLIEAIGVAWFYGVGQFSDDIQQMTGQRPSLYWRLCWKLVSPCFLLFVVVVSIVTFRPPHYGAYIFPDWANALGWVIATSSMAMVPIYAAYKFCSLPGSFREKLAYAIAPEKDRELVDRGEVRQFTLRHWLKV
Sequence of High affinity choline transporter 1 (Homo sapiens) (Q9GZV3 whole entry): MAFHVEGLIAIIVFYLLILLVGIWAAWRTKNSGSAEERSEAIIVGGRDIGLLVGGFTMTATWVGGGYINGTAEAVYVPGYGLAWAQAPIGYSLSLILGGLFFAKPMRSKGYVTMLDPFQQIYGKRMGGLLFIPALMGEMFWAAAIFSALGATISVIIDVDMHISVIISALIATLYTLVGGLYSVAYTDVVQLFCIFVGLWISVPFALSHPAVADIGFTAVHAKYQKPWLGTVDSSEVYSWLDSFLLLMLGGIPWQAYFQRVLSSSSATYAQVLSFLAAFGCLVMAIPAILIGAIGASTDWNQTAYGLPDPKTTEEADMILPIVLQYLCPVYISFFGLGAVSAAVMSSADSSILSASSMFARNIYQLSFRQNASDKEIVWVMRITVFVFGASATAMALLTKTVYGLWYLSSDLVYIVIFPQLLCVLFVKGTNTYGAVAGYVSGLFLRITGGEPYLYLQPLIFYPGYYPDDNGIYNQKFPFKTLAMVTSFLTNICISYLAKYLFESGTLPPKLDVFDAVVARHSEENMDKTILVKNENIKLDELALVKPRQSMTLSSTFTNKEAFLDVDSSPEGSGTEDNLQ
Sequence of Beta-2 adrenergic receptor (Homo sapiens) (P07550 whole entry, looked up): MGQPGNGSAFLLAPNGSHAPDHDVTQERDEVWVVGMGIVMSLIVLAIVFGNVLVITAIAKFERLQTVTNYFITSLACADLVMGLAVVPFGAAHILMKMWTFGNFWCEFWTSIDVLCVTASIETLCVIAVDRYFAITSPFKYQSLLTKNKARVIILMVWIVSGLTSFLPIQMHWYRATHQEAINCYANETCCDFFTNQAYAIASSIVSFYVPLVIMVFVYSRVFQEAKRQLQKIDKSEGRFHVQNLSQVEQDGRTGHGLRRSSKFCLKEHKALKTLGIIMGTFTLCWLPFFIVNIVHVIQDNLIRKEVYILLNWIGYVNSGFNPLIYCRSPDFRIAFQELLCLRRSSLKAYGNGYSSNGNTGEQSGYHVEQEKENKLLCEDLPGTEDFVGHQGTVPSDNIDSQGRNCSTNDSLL
Sequence of Prostaglandin G/H synthase 2 (Homo sapiens) (P35354 whole entry): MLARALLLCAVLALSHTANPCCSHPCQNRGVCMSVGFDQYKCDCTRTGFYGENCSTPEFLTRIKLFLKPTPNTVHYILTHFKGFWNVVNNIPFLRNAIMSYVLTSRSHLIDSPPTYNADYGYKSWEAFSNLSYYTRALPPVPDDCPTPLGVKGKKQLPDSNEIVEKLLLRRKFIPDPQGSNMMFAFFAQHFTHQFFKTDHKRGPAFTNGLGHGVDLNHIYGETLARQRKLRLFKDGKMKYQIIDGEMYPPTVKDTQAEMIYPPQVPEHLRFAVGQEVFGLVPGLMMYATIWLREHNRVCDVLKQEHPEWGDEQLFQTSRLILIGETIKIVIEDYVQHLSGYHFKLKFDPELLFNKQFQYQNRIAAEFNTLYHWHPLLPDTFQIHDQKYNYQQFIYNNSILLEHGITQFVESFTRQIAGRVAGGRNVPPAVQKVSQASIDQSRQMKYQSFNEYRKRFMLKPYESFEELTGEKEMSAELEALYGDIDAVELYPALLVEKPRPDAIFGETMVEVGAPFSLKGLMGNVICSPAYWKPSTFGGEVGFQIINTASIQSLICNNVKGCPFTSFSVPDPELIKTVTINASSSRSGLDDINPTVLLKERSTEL
Sequence of Sodium channel protein type 11 subunit alpha (Q9UI33 whole entry): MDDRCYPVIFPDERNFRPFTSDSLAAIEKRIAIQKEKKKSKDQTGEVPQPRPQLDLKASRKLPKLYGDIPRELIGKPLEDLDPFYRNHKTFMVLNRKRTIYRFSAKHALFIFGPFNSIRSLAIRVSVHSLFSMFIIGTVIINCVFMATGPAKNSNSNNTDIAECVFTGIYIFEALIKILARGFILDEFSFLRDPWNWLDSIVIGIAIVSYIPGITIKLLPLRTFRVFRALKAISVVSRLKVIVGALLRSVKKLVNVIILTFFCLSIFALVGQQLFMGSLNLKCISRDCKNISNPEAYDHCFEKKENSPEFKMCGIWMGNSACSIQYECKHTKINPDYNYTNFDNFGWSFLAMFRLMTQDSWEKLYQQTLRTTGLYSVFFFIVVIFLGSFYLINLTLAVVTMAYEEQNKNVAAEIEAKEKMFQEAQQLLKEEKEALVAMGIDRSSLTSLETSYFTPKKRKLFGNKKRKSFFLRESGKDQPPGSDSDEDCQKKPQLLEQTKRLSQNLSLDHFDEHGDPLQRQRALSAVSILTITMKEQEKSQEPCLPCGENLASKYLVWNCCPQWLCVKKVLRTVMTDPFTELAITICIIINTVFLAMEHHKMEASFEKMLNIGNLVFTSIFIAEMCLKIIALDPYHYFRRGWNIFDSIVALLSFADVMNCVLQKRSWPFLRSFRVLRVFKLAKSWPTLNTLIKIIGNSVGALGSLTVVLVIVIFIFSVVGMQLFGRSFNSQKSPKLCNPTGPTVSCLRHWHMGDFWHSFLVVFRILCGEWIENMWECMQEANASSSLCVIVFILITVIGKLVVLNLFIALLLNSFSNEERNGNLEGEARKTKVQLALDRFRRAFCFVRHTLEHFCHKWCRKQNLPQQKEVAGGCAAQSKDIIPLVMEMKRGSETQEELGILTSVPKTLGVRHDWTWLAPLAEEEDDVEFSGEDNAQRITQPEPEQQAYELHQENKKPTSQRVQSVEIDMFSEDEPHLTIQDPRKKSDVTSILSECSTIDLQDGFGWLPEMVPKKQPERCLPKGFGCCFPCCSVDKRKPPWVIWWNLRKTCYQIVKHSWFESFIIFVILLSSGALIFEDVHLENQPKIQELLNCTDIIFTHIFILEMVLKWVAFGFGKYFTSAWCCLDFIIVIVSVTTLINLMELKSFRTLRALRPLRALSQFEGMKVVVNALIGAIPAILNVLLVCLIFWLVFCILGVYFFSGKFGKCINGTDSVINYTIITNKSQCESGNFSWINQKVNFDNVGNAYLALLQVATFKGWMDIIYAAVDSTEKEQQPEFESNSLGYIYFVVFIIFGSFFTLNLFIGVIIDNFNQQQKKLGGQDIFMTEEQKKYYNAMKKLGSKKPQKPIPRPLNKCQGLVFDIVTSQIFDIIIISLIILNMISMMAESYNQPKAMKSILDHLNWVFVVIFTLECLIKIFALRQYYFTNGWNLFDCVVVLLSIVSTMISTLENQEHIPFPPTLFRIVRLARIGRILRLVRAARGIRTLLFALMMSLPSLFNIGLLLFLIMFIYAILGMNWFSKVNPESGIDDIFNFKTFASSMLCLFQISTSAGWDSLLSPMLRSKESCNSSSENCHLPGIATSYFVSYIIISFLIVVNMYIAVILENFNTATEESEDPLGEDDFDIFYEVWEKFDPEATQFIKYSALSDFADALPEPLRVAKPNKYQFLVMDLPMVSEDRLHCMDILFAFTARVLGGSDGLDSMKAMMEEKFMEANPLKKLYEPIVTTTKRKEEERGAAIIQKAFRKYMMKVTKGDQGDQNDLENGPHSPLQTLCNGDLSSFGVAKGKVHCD
Sequence of D(1A) dopamine receptor (Homo sapiens) (P21728 whole entry, the tested form may be a part): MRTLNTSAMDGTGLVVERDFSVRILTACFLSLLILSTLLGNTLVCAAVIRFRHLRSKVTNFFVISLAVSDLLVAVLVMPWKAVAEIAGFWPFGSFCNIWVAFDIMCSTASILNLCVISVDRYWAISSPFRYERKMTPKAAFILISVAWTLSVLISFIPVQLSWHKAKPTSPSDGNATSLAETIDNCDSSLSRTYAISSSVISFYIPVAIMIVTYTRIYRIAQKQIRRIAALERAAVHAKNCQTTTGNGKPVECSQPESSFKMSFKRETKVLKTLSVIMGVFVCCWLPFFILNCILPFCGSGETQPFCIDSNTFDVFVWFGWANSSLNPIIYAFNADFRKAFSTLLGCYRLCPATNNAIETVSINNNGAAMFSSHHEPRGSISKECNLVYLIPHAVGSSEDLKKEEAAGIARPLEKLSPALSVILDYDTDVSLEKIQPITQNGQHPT

`N#Cc1cc(S(=O)(=O)Nc2ncns2)ccc1Oc1ccc(-c2cccc(C(F)(F)F)c2)cc1-c1ccnc(CNCCC2CCNCC2)c1` showed an IC50 [1] of over 10 µM, an Activity [2] of 1% and an inhibition [3] of 85%. The IC50 [4] was over 30 µM, the inhibition [5] was 9% and the inhibition [6] was 99%. It also gave an IC50 [7] of over 25.2 µM, a fraction unbound at 2 µM [8] of 0.002 and an IC50 [9] of 4.01 µM. For the same molecule, the Ki [9] was 2.12 µM, the inhibition [10] was 23% and the inhibition [11] was 30%. It also gave a half-life [12] of 12.6 min and an Activity [13] of -7%.
